In publication PMC6008299, “Impact of race on dose selection of molecular-targeted agents in early-phase oncology trials” (British Journal of Cancer, 2018):

Tests used:
Type in all cases: in vivo, human
tumour [18F]-FDG uptake [1] = assay: [18F]-FDG-PET metabolic response, Japanese (Asian) patients; settings: day 4
Method: (§1) In both studies, the PK profile of DS-7423 was characterised during cycle 1 on days 1 and 8. For PD analysis, glucose, C-peptide, and Akt phosphorylation were measured in platelet-rich plasma collected at predose, 1, 2, 4, 6, and 24 h after dosing on days 1 and 15. Tumour assessment was performed every two cycles using Response Evaluation Criteria in Solid Tumours (RECIST) version 1.1 in both studies. 18F-Fluoro-2-deoxy-D-glucose positron emission tomography ([18F]-FDG) was performed as an exploratory endpoint at baseline and on day 4.[10]

Akt phosphorylation = assay: Pharmacodynamics: Akt phosphorylation in platelet-rich plasma; settings: pre-treatment vs post-treatment, 32 patients
Method: as §1

[2] = test system: patients with advanced, refractory solid tumours; assay: US and Japanese phase I studies combined: safety
Method: We conducted two independent, prospective, first-in-human phase I studies of DS-7423, a dual PI3K/mTOR inhibitor, in patients with advanced, refractory solid tumours in the US (U101 study) and Japan (J102 study); age ≥18 years in the US and ≥20 years in Japan; and Eastern Cooperative Oncology Group performance status (ECOG PS) 0–1. Key exclusion criteria included fasting glucose >126 mg/dL (>7 mmol/L); HbA1c >7.0% for the US and HbA1c >6.5% for Japan; history of diabetes mellitus (type I or II); concomitant use of chronic systemic corticosteroids, or prior toxicities from a dual PI3K/mTOR inhibitor (Supplementary Table 1). Studies were approved by the Institutional Review Board at the participating institutions and regulatory authorities. Written informed consent in English and Japanese was obtained from all patients prior to enrollment. The study followed the Declaration of Helsinki and good clinical practice guidelines and was registered with ClinicalTrials.gov (NCT01364844) and with ClinicalTrials.jp (Japic CTI, 12766).
The primary objective was to assess the safety and tolerability to determine the MTD and RP2D of DS-7423 in US and Japanese patients. Secondary and exploratory objectives were to evaluate PK, tumour response, and PD effects. Treatment-emergent adverse events (TEAE) were graded using the Common Terminology Criteria for Adverse Events version 4.0. A dose-limiting toxicity (DLT) was defined as a grade ≥3 clinically significant toxicity, with the exceptions of grade ≥4 anaemia and prolonged grade 3 neutropenia. Both studies were open-label, phase I dose-escalation studies. In Japan, the study was conducted at a single centre, while the US study was conducted at three sites. In Japan, dose escalation of DS-7423 was guided by the modified continuous reassessment method (mCRM) using a Bayesian logistic regression model following the escalation with overdose control (EWOC) principle at a starting dose of 4 mg once daily.[9] In the US, an accelerated titration design was used at low doses followed by a mCRM with EWOC. Briefly, the dose was escalated based on safety data in a single patient until a grade 2 or higher toxicity was observed during cycle 1 or the DLT period (days 1–28). In both studies, DS-7423 was administered orally once daily until patients experienced unacceptable treatment-related toxicity or disease progression. Prophylactic granulocyte colony-stimulating factor and antiemetics were not permitted during cycle 1.

tumour [18F]-FDG uptake [3] = assay: [18F]-FDG-PET metabolic response, US (Caucasian) patients; settings: day 4
Method: as §1

advanced solid tumours = assay: Tumour assessment RECIST 1.1, both studies; settings: either study
Method: as §1

[4] = Pharmacokinetics in Japanese cohort (J102)
Method: as §1
The data cut-off for the primary analysis occurred after all patients had either discontinued the study or completed 6 months of study drug treatment. Descriptive statistics were provided for selected demographic, safety, PK, and PD data by dose and time as appropriate. Descriptive statistics on continuous data included means, medians, standard deviations, and ranges, while categorical data were summarised using frequency counts and percentages. No inferential analysis to compare dose levels was performed due to limited sample sizes. The WinNonlin software was used for PK analysis.

[5] = dose level 4, Japanese cohort (n = 3)
[6] = dose level 8, Japanese cohort (n = 3)
[7] = dose level 16, Japanese cohort (n = 2)
[8] = dose level 160, Japanese cohort (n = 3)
[9] = dose level 240, Japanese cohort (n = 5)

CC(=O)N1CCN(c2nc3c(N4CCOCC4)nc(-c4cnc(N)nc4)nc3n2CC(F)(F)F)C[C@H]1C [DS-7423]
Patients with partial metabolic response ([18F]-FDG-PET) (tumour [18F]-FDG uptake [1]): 36.4%
Patients with partial metabolic response ([18F]-FDG-PET) (tumour [18F]-FDG uptake [1]; of 11 patients): 4
Akt phosphorylation in platelet-rich plasma (Akt phosphorylation): inhibited compared with that at baseline
AST increased (TEAE), incidence ([2]; All (n = 69)): 10.1%
AST increased (TEAE), n patients ([2]; All (n = 69)): 7
Abdominal pain (TEAE), incidence ([2]; All (n = 69)): 14.5%
Abdominal pain (TEAE), n patients ([2]; All (n = 69)): 10
Back pain (TEAE), incidence ([2]; All (n = 69)): 15.9%
Back pain (TEAE), n patients ([2]; All (n = 69)): 11
Blood creatinine increased (TEAE), incidence ([2]; All (n = 69)): 10.1%
Blood creatinine increased (TEAE), n patients ([2]; All (n = 69)): 7
Constipation (TEAE), incidence ([2]; All (n = 69)): 18.8%
Constipation (TEAE), n patients ([2]; All (n = 69)): 13
Cough (TEAE), incidence ([2]; All (n = 69)): 15.9%
Cough (TEAE), n patients ([2]; All (n = 69)): 11
Decreased appetite (TEAE), incidence ([2]; All (n = 69)): 49.3%
Decreased appetite (TEAE), n patients ([2]; All (n = 69)): 34
Dehydration (TEAE), incidence ([2]; All (n = 69)): 8.7%
Dehydration (TEAE), n patients ([2]; All (n = 69)): 6
Diarrhoea (TEAE), incidence ([2]; All (n = 69)): 56.5%
Diarrhoea (TEAE), n patients ([2]; All (n = 69)): 39
Dry mouth (TEAE), incidence ([2]; All (n = 69)): 18.8%
Dry mouth (TEAE), n patients ([2]; All (n = 69)): 13
Dysgeusia (TEAE), incidence ([2]; All (n = 69)): 27.5%
Dysgeusia (TEAE), n patients ([2]; All (n = 69)): 19
Edema (TEAE), incidence ([2]; All (n = 69)): 17.4%
Edema (TEAE), n patients ([2]; All (n = 69)): 12
Fatigue (TEAE), incidence ([2]; All (n = 69)): 55.1%
Fatigue (TEAE), n patients ([2]; All (n = 69)): 38
Hyperglycaemia (TEAE), incidence ([2]; All (n = 69)): 17.4%
Hyperglycaemia (TEAE), n patients ([2]; All (n = 69)): 12
Lung infection/ pneumonia (TEAE), incidence ([2]; All (n = 69)): 5.8%
Lung infection/ pneumonia (TEAE), n patients ([2]; All (n = 69)): 4
Nausea (TEAE), incidence ([2]; All (n = 69)): 56.5%
Nausea (TEAE), n patients ([2]; All (n = 69)): 39
Pyrexia (TEAE), incidence ([2]; All (n = 69)): 14.5%
Pyrexia (TEAE), n patients ([2]; All (n = 69)): 10
Rash (TEAE), incidence ([2]; All (n = 69)): 33.3%
Rash (TEAE), n patients ([2]; All (n = 69)): 23
Stomatitis (TEAE), incidence ([2]; All (n = 69)): 33.3%
Stomatitis (TEAE), n patients ([2]; All (n = 69)): 23
Vomiting (TEAE), incidence ([2]; All (n = 69)): 37.7%
Vomiting (TEAE), n patients ([2]; All (n = 69)): 26
RP2D ([2]; US and Japan phase I studies, oral once daily): 240 mg/day
DS-7423-related ≥grade 3 TEAE ([2]; all cohorts): rare
Grade of nausea, vomiting, and dysgeusia events ([2]; all cohorts): grade 1 or 2
Patients with partial metabolic response ([18F]-FDG-PET) (tumour [18F]-FDG uptake [3]): 48.5%
Patients with partial metabolic response ([18F]-FDG-PET) (tumour [18F]-FDG uptake [3]; of 33 patients): 16
Response by RECIST 1.1 (advanced solid tumours): no PR or CR
Mean AUCtau [4, 5]: 31.1 ng·h/mL
Mean Cmax [4, 5]: 3 ng/mL
T1/2 [4, 5]: 6 to 7 h
Tmax [4, 5]: 2 to 4 h
Mean AUCtau [4, 6]: 84.2 ng·h/mL
Mean Cmax [4, 6]: 10 ng/mL
T1/2 [4, 6]: 6 to 7 h
Tmax [4, 6]: 2 to 4 h
Mean AUCtau [4, 7]: 178 ng·h/mL
Mean Cmax [4, 7]: 18 ng/mL
T1/2 [4, 7]: 6 to 7 h
Tmax [4, 7]: 2 to 4 h
Mean AUCtau [4, 8]: 1223.3 ng·h/mL
Mean Cmax [4, 8]: 61 ng/mL
T1/2 [4, 8]: 6 to 7 h
Tmax [4, 8]: 2 to 4 h
Mean AUCtau [4, 9]: 1184.8 ng·h/mL
Mean Cmax [4, 9]: 83.6 ng/mL
T1/2 [4, 9]: 12 h
Tmax [4, 9]: 2 to 4 h
